From ChEMBL document CHEMBL1201862, “PubChem BioAssay data set” (2004) come the findings set out here.

Structures are written as SMILES.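 All cell lines were grown in 96-well plates and treated with compound for 48 hours. GI50 = concentration required for 50% inhibition of growth.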 Active and inactive are the calls of the source. Cut-off read from the data, not from the text of the source: active = GI50 up to about 1.1 µM and inactive = higher.

Among the test systems are ACHN; CAKI-1; HCT-116; HL-60; HOP-62; IGROV-1; KM12; LOX IMVI; MOLT-4; Malme-3M; NCI-H23; NCI-H522; OVCAR-3; OVCAR-5; SK-MEL-28; SNB-75; UACC-257; PC-3; MDA-MB-435.
Holding throughout (assay): inhibition of tumour cell growth, NCI panel, 48 h

For `CN(O)C(=O)c1ccccc1`, the GI50 in the experiment on ACHN, with CAKI-1, in the experiment on HCT-116, with HL-60, with HOP-62 and with IGROV-1 was > 100 µM (inactive) each time. In addition, the GI50 with KM12, in the experiment with LOX IMVI, in the experiment on MOLT-4, with Malme-3M, in the experiment on NCI-H23 and in the experiment on NCI-H522 was > 100 µM (inactive) throughout. Further, the GI50 with OVCAR-3, in the experiment with OVCAR-5, in the experiment with SK-MEL-28, with SNB-75 and with UACC-257 was > 100 µM (inactive) each time.
As for `C=C1C2Oc3ccccc3C1N(c1ccccc1)O2` (centres undefined), the GI50 was 37.2 µM (inactive) in the experiment with ACHN; 40.8 µM (inactive) in the experiment on CAKI-1; 20.3 µM (inactive) in the experiment with HCT-116; 30.3 µM (inactive) in the experiment on HL-60; 66.7 µM (inactive) in the experiment on HOP-62; 34.4 µM (inactive) in the experiment on IGROV-1. The GI50 with KM12 is 17.9 µM (inactive); in the experiment with LOX IMVI it was 13.7 µM (inactive); in the experiment with MOLT-4, 20 µM (inactive); in the experiment on Malme-3M, 46.7 µM (inactive); in the experiment on NCI-H23 it was > 10 µM (inactive); with NCI-H522, 27.2 µM (inactive). In addition, the GI50 was 32.3 µM (inactive) with OVCAR-3; 80 µM (inactive) with OVCAR-5; 58.1 µM (inactive) in the experiment with SK-MEL-28; 43.8 µM (inactive) in the experiment on SNB-75; 40.6 µM (inactive) in the experiment on UACC-257.
Turning to `Cc1cc(N(CCC#N)CCC#N)ccc1/C=C1/N=C(c2ccccc2)N(N)C1=O`, the GI50 with ACHN is > 100 µM (inactive); in the experiment with CAKI-1, 98.2 µM (inactive); with HCT-116, > 100 µM (inactive); in the experiment with HL-60, 27 µM (inactive); in the experiment on HOP-62, 31.9 µM (inactive); in the experiment with IGROV-1 it was 79.8 µM (inactive). The GI50 in the experiment with KM12 was > 100 µM (inactive); in the experiment with LOX IMVI, 49.3 µM (inactive); in the experiment on MOLT-4 it was > 100 µM (inactive); in the experiment with Malme-3M, > 100 µM (inactive); with NCI-H23, 56.9 µM (inactive); with NCI-H522, 26 µM (inactive). Further, the GI50 in the experiment with OVCAR-3 is > 100 µM (inactive); in the experiment on OVCAR-5, > 100 µM (inactive); in the experiment on SK-MEL-28 it was > 100 µM (inactive); in the experiment with SNB-75 it was 21.1 µM (inactive); in the experiment with UACC-257, > 100 µM (inactive).
Take `CC(C)=NN/C=N\C(C#N)=C(/N)C#N`: the GI50 with ACHN is > 100 µM (inactive); in the experiment on CAKI-1 it was > 100 µM (inactive); in the experiment with HCT-116, 78.9 µM (inactive); with HL-60, > 100 µM (inactive); in the experiment with HOP-62, > 100 µM (inactive); with IGROV-1, > 100 µM (inactive). In addition, the GI50 in the experiment with MOLT-4 was > 100 µM (inactive); with Malme-3M, 69.2 µM (inactive); in the experiment with NCI-H23 it was > 100 µM (inactive); in the experiment with NCI-H522, > 100 µM (inactive); in the experiment with OVCAR-3, > 100 µM (inactive); in the experiment with OVCAR-5, > 100 µM (inactive). The GI50 in the experiment on PC-3 is > 100 µM (inactive); with SK-MEL-28, > 100 µM (inactive); in the experiment with SNB-75, 0.466 µM (active); with UACC-257, > 100 µM (inactive).
As for `O=C(O)/C(Cl)=C(\Cl)C(=O)c1ccccc1`, the GI50 in the experiment on ACHN, in the experiment with CAKI-1, in the experiment with HCT-116, in the experiment with HL-60, in the experiment on HOP-62 and in the experiment with IGROV-1 was > 100 µM (inactive) each time. In addition, the GI50 in the experiment with KM12, in the experiment with LOX IMVI, in the experiment with MOLT-4, in the experiment with Malme-3M, in the experiment on NCI-H23 and in the experiment with NCI-H522 was > 100 µM (inactive) in each case. In addition, the GI50 in the experiment on OVCAR-3, with OVCAR-5, with SK-MEL-28, in the experiment with SNB-75 and with UACC-257 was > 100 µM (inactive) each time.
As to `O=C1OC(c2ccccc2)(c2ccccc2)c2ccc3ccc(F)cc3c21`, the GI50 is 49.8 µM (inactive) with ACHN; 33.3 µM (inactive) in the experiment with CAKI-1; 27 µM (inactive) in the experiment with HCT-116; 9.4 µM (inactive) with HL-60; > 100 µM (inactive) with HOP-62; > 100 µM (inactive) with IGROV-1. Moreover, the GI50 was > 100 µM (inactive) with KM12; 60.3 µM (inactive) in the experiment with LOX IMVI; > 100 µM (inactive) in the experiment on MOLT-4; > 100 µM (inactive) with Malme-3M; 52.8 µM (inactive) with NCI-H23; 51.1 µM (inactive) in the experiment on NCI-H522. For the same molecule, the GI50 in the experiment on OVCAR-3 is 68.7 µM (inactive); with OVCAR-5, > 100 µM (inactive); with SK-MEL-28 it was > 100 µM (inactive); with SNB-75, 37.6 µM (inactive); in the experiment on UACC-257 it was 37.1 µM (inactive).
In the case of `c1ccc(C(NC2CCCCC2NCCNC2CCCCC2NC(c2ccccc2)(c2ccccc2)c2ccccc2)(c2ccccc2)c2ccccc2)cc1` (centres undefined), the GI50 is 90.2 µM (inactive) in the experiment on ACHN; 64.4 µM (inactive) in the experiment on CAKI-1; 20.1 µM (inactive) in the experiment with HCT-116; 34.1 µM (inactive) in the experiment with HOP-62; 26.8 µM (inactive) with IGROV-1; 57.1 µM (inactive) in the experiment on KM12. Besides, the GI50 in the experiment on LOX IMVI was 19 µM (inactive); with MDA-MB-435 it was 17.7 µM (inactive); with MOLT-4, 47.8 µM (inactive); in the experiment with NCI-H23 it was 20.9 µM (inactive); in the experiment on NCI-H522, 14.6 µM (inactive); with OVCAR-3, 39.5 µM (inactive). Moreover, the GI50 in the experiment with OVCAR-5 was > 100 µM (inactive); in the experiment with PC-3, 64 µM (inactive); in the experiment on SK-MEL-28, > 100 µM (inactive); with UACC-257, > 100 µM (inactive).
`CC(C)(C)OC(=O)NC(Cc1ccccc1)C(=S)N1CCCC1` (centres undefined): the GI50 in the experiment with ACHN is > 100 µM (inactive); with CAKI-1, > 50.9 µM (inactive); in the experiment on HCT-116 it was > 100 µM (inactive); in the experiment on HL-60, 89.5 µM (inactive); with HOP-62, 25.8 µM (inactive); with IGROV-1, > 100 µM (inactive). Also, the GI50 is > 100 µM (inactive) with KM12; > 87.9 µM (inactive) in the experiment with LOX IMVI; 42.6 µM (inactive) in the experiment on MOLT-4; > 100 µM (inactive) in the experiment on Malme-3M; 48.8 µM (inactive) with NCI-H23; 25 µM (inactive) in the experiment on NCI-H522. In addition, the GI50 in the experiment with OVCAR-3 was > 100 µM (inactive); in the experiment with OVCAR-5 it was > 100 µM (inactive); in the experiment with SK-MEL-28, > 100 µM (inactive); in the experiment with SNB-75, 55.5 µM (inactive); with UACC-257, 89.1 µM (inactive).
